{
  "source": "patent US20200390902A1",
  "about": "“Antibody-Drug Conjugates Targeted at Human Aspartyl-(Asparaginyl)-B-Hydroxylase (HAAH)” (Panacea Pharmaceuticals, Inc., priority 2017, published 2020)",
  "key": {"[1]": {"system": "metastatic nodules in the lungs (PDAC PDx)", "test": "PDx model of PDAC, lung metastasis", "format": "in vivo, mouse", "conditions": "1.9 mg/kg, after 6 weeks of administration", "text": "Pancreatic ductular adenocarcinoma (PDAC) is a highly lethal malignancy with limited treatment options. HAAH is a cell surface protein that is highly expressed in […] of PDACs. The specificity of SNS622-MC-DM1 was next examined in the patient-derived xenograft (PDx) mouse model PDAC. The patient-derived xenograft (PDx) murine model was established by using surgically resected PDAC (from Rhode Island Hospital, Providence, R.I., U.S.A.). Five to six-week-old female Nod Scid Gamma (NSG) mice were employed. […] Body weight and tumor size were measured twice a week and tumor volume was calculated using the modified ellipsoid formula (0.5×length×width^2). To determine the effect of SNS622-MC-DM1 on lung metastasis, all lung tissues were immersed in Bouin's fixative solution (Sigma-Aldrich, St. Louis, Mo., U.S.A.; catalog No, HT10132) and metastatic nodules on the surface of the lungs were counted. […]\nThis phenotype was maintained in the PDx model of NSG mouse. […] In this context, dose and period of administration of PAN-622 or SNS622-MC-DM1 for treatment of NSG mice was reduced to 1.9 mg/kg and the development and growth of metastatic nodules in the lungs after the treatment was assessed After 6 weeks of administration, the number of macroscopic metastatic nodules on the lung surface was determined."}, "[2]": {"system": "normal human lung fibroblasts (NHLF)", "test": "Lactate dehydrogenase (LDH) release assay, NHLF", "format": "cell-based", "conditions": "32 nM, 72 hours", "procedure": "Both cell lines were cultured in HG-DMEM (ThermoFisher Scientific Catalog No. 11965-092) supplemented with 20 mM HEPES (4-(2-hydroxyethyl)-1-piperazineethanesulfonic acid), 4 mM L-glutamine, 1 mM sodium pyruvate, 1× non-essential amino acids, 50 μg/ml gentamicin and 10% fetal bovine serum (FBS). H460 and NHLF cells were seeded into 96-well plates at 5,000 cells per well, following a 2-day FBS deprivation, and released by culture in complete culture medium containing 10% FBS. […] By 72 hours post treatment, cell death was determined by observing cell morphology using a phase contrast microscope at 150×.\nThe cell death was also quantified using lactate dehydrogenase (LDH) releasing assay. For the LDH assay, a mixture of a 35 μl aliquot of culture medium and 17.5 μl of substrate, enzyme, and dye solutions (Sigma, St. Louis, Mo., U.S.A.) was incubated at room temperature for 30 minutes, and absorbance was measured at 490 nm using a plate reader (ELx805; BioTek, Winooski, Vt., U.S.A.)."}},
  "data": [
    {"substance": "SNS622-MC-DM1: SNS622 anti-HAAH monoclonal antibody conjugated to mertansine (DM1) by the non-cleavable linker maleimidocaproyl (MC)", "values": [
      {"measurement": "Mean number of nodules per animal", "setting": "[1]", "value": 3.25},
      {"measurement": "Total number of metastatic nodules in group", "setting": "[1]", "value": "approximately 35"},
      {"measurement": "Increase in LDH release", "setting": "[2]", "value": "did not result in a detectable increase in LDH release"}
    ]}
  ]
}
